Test results taken from US8765775B2, “Anti-angiogenic compounds” (Universitaet Zuerich, priority 2008, dated 2014).
“And” between values parts separate entries of the source, which are not always exact repeats. Equal values may be shown once.

Columns and labels:
EphB4 = target: T1, EphB4 (Homo sapiens, UniProt P54760); assay: IC50 and % inhibition (Table 3); type: biochemical; settings: for IC50: Table 3, repeated determinations, read-out: IC50
T1 sequence (P54760 16-987): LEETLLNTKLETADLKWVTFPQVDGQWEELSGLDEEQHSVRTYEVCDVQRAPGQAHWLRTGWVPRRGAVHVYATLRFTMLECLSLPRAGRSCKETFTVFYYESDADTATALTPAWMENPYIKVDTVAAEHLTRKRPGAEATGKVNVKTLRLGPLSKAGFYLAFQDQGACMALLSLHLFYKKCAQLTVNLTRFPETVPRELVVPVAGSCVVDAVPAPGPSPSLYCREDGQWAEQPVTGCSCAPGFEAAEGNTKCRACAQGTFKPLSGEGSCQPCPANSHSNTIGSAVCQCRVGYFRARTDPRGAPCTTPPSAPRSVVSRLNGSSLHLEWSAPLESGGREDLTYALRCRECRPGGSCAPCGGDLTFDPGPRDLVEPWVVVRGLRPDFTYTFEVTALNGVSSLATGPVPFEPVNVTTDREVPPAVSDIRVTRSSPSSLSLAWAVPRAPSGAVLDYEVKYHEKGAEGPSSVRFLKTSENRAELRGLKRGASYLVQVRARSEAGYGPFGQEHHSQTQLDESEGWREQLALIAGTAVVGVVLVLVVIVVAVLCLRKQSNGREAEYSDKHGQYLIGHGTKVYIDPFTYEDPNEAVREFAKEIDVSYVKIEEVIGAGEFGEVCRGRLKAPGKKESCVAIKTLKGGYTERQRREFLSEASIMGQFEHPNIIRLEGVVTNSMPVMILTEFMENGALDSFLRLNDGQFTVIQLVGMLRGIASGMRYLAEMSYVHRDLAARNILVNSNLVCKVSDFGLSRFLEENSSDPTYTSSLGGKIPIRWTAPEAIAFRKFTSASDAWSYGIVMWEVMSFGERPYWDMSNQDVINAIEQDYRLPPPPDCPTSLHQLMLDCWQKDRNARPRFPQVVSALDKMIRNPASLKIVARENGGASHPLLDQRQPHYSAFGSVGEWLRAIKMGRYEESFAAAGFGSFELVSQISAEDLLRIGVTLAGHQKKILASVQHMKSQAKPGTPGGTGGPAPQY

[1] = C = 20 μM, read-out: % inhibition at indicated concentration C

**Q.** For `CCCCn1c(-c2ccccc2)c(Br)n2c3c(=O)[nH]c(=O)n(C)c3nc12` [Compound 38, 6-Bromo-8-butyl-1-methyl-7-phenyl-1H-imidazo[2,1-f]purine-2,4(3H,8H)-dione], which melting point is on record?
**A.** 302 to 304 °C

**Q.** Which IC50 (EphB4) does the source give for `COc1ccccc1-n1c(-c2ccc(F)cc2)cn2c3c(=O)[nH]c(=O)[nH]c3nc12` [Compound 30, 7-p-Fluorophenyl-8-(2-methoxyphenyl)-1H-imidazo[2,1-f]purine-2,4(3H,8H)-dione] here?
**A.** 4.6 µM and 6.2 µM

**Q.** For `COc1ccc(-n2c(-c3ccc(F)cc3)cn3c4c(=O)[nH]c(=O)n(C)c4nc23)c(OC)c1` [Compound 16], which “% inhibition at indicated concentration C” value (“% inhibition” for short) (EphB4; C = 10 μM, 10 µM) is on record?
**A.** 50% and 28%

**Q.** With `COc1ccccc1-n1c(-c2ccc(F)cc2)cn2c3c(=O)[nH]c(=O)n(Cc4ccccc4)c3nc12` [Compound 22, 1-Benzyl-7-p-fluorophenyl-8-(2-methoxyphenyl)-1H-imidazo[2,1-f]purine-2,4(3H,8H)-dione] as the compound, how does the melting point read?
**A.** 251 to 253 °C

**Q.** For `COc1ccccc1-n1c(-c2ccc(F)cc2)cn2c3c(=O)[nH]c(=O)n(CSC)c3nc12` [Compound 34, 8-(2-Methoxyphenyl)-1-(methylthiomethyl)-7-(p-Fluorophenyl)-1H-imidazo[2,1-f]purine-2,4(3H,8H)-dione], which IC50 (EphB4) is on record?
**A.** 5.1 µM and 6.4 µM

**Q.** With `COc1ccc(OC)c(-n2c(-c3ccc(F)cc3)cn3c4c(=O)[nH]c(=O)n(C)c4nc23)c1` [Compound 17] as the compound, how does the “% inhibition” value (EphB4; C = 10 μM, 10 µM) read?
**A.** 62%

**Q.** What about the inhibition at 10 µM (EphB4; C = 10 μM, read-out: % inhibition at indicated concentration C) of the same compound?
**A.** 72%

**Q.** For `O=c1[nH]c(=O)n(Cc2ccccc2)c2nc3[nH]c(-c4ccccc4)cn3c12` [Compound 18, 1-Benzyl-7-phenyl-1H-imidazo[2,1-f]purine-2,4(3H,9H)-dione], which melting point is on record?
**A.** 393 to 395 °C

**Q.** For `COc1ccccc1-n1c(-c2ccc(C(=O)O)cc2)cn2c3c(=O)[nH]c(=O)n(C)c3nc12` [Compound 44, 8-(2-Methoxyphenyl)-1-methyl-7-p-carboxyphenyl-1H-imidazo[2,1-f]purine-2,4(3H,8H)-dione], which “% inhibition” value (EphB4; C = 20 μM, 20 µM) is on record?
**A.** 23% and 19% and 13%

**Q.** And the inhibition at 20 µM (EphB4; [1])?
**A.** 12%

**Q.** What does the source list for `COc1ccccc1-n1c(-c2ccccc2)c(C#N)n2c3c(=O)[nH]c(=O)n(C)c3nc12` [Compound 41, 6-Cyano-8-(2-methoxyphenyl)-1-methyl-7-phenyl-1H-imidazo[2,1-f]purine-2,4(3H,8H)-dione]?
**A.** % inhibition at indicated concentration C (EphB4; C = 20 μM, 20 µM): 30%; inhibition at 20 µM (EphB4; [1]): 21%

**Q.** Which IC50 (EphB4) does the source give for `COC(=O)Cn1c(=O)[nH]c(=O)c2c1nc1n(-c3ccccc3OC)c(-c3ccc(F)cc3)cn21` [Compound 32, 8-(2-Methoxyphenyl)-1-(methoxy-2-oxoethyl)-7-(p-Fluorophenyl)-1H-imidazo[2,1-f]purine-2,4(3H,8H)-dione] here?
**A.** 9.5 µM and 8.9 µM

**Q.** For `COc1ccccc1-n1c(-c2ccccc2)c(Br)n2c3c(=O)[nH]c(=O)n(C)c3nc12` [Compound 37, 6-Bromo-8-(2-methoxyphenyl)-1-methyl-7-phenyl-1H-imidazo[2,1-f]purine-2,4(3H,8H)-dione], which melting point is on record?
**A.** 274 to 276 °C

**Q.** With `COc1ccccc1-n1c(-c2ccc(F)cc2)cn2c3c(=O)[nH]c(=O)n(CS(C)(=O)=O)c3nc12` [Compound 35, 8-(2-Methoxyphenyl)-1-(methylsulfonylmethyl)-7-(p-Fluorophenyl)-1H-imidazo[2,1-f]purine-2,4(3H,8H)-dione] as the compound, how does the IC50 (EphB4) read?
**A.** 7.9 µM and 7.1 µM

**Q.** With `COc1ccccc1-n1c(-c2ccc([N+](=O)[O-])cc2)cn2c3c(=O)[nH]c(=O)n(C)c3nc12` [Compound 27, 8-(2-Methoxyphenyl)-1-methyl-7-p-nitrophenyl-1H-imidazo[2,1-f]purine-2,4(3H,8H)-dione] as the compound, how does the melting point read?
**A.** 323 to 325 °C

**Q.** Which melting point does the source give for `Cn1c(-c2ccccc2)cn2c3c(=O)[nH]c(=O)n(Cc4ccccc4)c3nc12` [Compound 19, 1-Benzyl-8-methyl-7-phenyl-1H-imidazo[2,1-f]purine-2,4(3H,8H)-dione] here?
**A.** 306 to 308 °C

**Q.** Which melting point does the source give for `O=c1[nH]c(=O)n(Cc2ccccc2)c2nc3n(-c4ccccc4)c(-c4ccc(F)cc4)cn3c12` [Compound 21, 1-Benzyl-7-p-fluorophenyl-8-phenyl-1H-imidazo[2,1-f]purine-2,4(3H,8H)-dione] here?
**A.** 250 to 252 °C
